Assay results reported in patent US11364231B2, “Methods of treating radiation induced gastrointestinal syndrome (RIGS) and related disease states using YEL002/BCN057” (priority 2017, dated 2022).
“Also recorded” adds a separate entry of the source.

Assays:
[1] = test system: MC38 colon tumor; assay: MC38 colon tumor in the flank with AIR; type: in vivo, mice
Description: FIG. 18. […] I) Schematic diagram of BCN057 treatment in C57B16 mice having MC38 colon tumor in the flank. Mice were exposed to AIR (15Gy) and then treated with BCN057 at 24 hrs post exposure. Ii) Representative image of C57B16 mice having MC38 colon tumor in the flank. Note reduction in tumor size in irradiated or un-irradiated tumor treated with BCN057 at day 20 post AIR. Mice exposed to AIR without BCN057 treatment are not part of this image as they died within day 15 post AIR.
Subcutaneous tumors were developed by injecting MC38 colon cancer cell in the flank. Mice with palpable, subcutaneous tumor were treated with AIR (16Gy) followed by eight doses of BCN057. AIR reduced the tumor growth but invariably produced 100% mortality of animals with a median survival time of 14+2 days.
Mice were injected subcutaneously with 1×105 MC38 (colon carcinoma cell line) cells on the flank, respectively. About 10 days later, the tumor became palpable (3-5 mm in diameter), whereupon abdominal irradiation 16 Gy was delivered. Mice were divided into 4 groups (n=10/group) receiving no treatment, AIR, BCN057 and BCN057 plus AIR. Animals received BCN057 eight times starting 24 hrs after AIR. Tumor measurements were performed thrice weekly using Vernier calipers along with simultaneous physical assessment of signs of systemic toxicity (malaise and diarrhea).

[2] = test system: β-catenin target genes; assay: Real-time PCR of β-catenin target genes in crypt cells; type: in vivo; conditions: crypt epithelial cells, irradiated mice treated with BCN057 vs irradiated control
Experimental: To compare the mRNA levels of β-catenin target genes in intestinal crypt cells from irradiated mice treated with BCN057 or PBS real-time PCR were performed using primer pairs for the genes Ephb2, Ascl, Olf, Tcf, Lef, Sox9 and Axin. RNA was isolated from crypt cells using RNeasy mini kit from Qiagen. Preparation of cDNA followed by real-time PCR array was performed according to manufacturer protocol (Qiagen).

[3] = test system: WNT target genes; assay: qPCR of WNT target genes in irradiated human colonic organoids; type: cell-based; conditions: epithelial cells from irradiated human colonic organoids treated with BCN057
Experimental: (B-C, Data was the average of 3 human subjects).
To examine the effect of BCN057 on human intestinal, epithelial tissue surgical specimen collected from normal colon at least 10 cm apart from malignant site was used to develop ex vivo crypt organoid. At a dose level of 8 Gy all the budding crypts have been disappeared in the organoids. […] The effect of BCN057 on mRNA level of β-catenin target genes in organoids was also evaluated.

[4] = test system: intestinal epithelial integrity; assay: FITC-dextran permeability assay; type: in vivo, mice
Experimental: Since dextran is unable to cross the GI epithelia unless it is compromised, dextran in the blood is a good indicator of epithelial damage. Blood FITC-dextran levels were measured at 4 h after gavage.
At day 5 post mice exposed to ABI and/or treated with BCN057 were gavaged with 0.6 mg g-1 body weight of a FITC-dextran solution ([…] size, Sigma). In all, four hrs. after gavage mice were killed and serum was obtained with cardiac puncture. Samples were measured in a 96-well plate using a Flexstation ii 384 multiwell fluorometer (Molecular Devices). A standard curve was constructed using mouse serum having increasing amounts of FITC-dextran to determine the serum levels of FITC-dextran in different treatment groups.

[5] = test system: Lgr5+ve ISC in Lgr5/GFP-IRES-Cre-ERT2 knock-in mice; assay: Lgr5+ve ISC survival in vivo after AIR; conditions: 15 Gy AIR then BCN057; beyond 48 hrs post AIR, p<0.001
Description: To study this effect in vivo, the role of BCN057 in ISC survival was examined by exposing Lgr5/GFP-IRES-Cre-ERT2 knock-in mice to 15 Gy to AIR and then treated with BCN057. Lgr5+ve ISC had disappeared from crypt base within 48 hrs post AIR in untreated mice.

[6] = test system: irradiated intestinal epithelium (jejunum); assay: Jejunum histology and crypt proliferation after AIR; type: in vivo
[7] = test system: C57B16 mice exposed to PBI (BM40); assay: Survival after partial body irradiation (PBI, BM40); type: in vivo; conditions: 14.5 Gy PBI (BM40), BCN057 at 24 hrs post PBI; untreated dead within 12 days
Description: FIG. 1C. Kaplan Meier survival analysis of C57B16 mice (n=25/group) exposed to PBI (BM40). Head & Neck and upper extremities were shielded to spare 40% of bone marrow.
Unless there has been a very focal radiation exposure there will also be involvement of many other organ systems, and their differential responses to various doses of irradiation will impact the gastrointestinal acute radiation syndrome (GI-ARS) dose response. All radiation doses inducing GI-ARS will have a major impact on the bone marrow, which in turn will affect the levels of intestinal inflammation and ability of the body to manage the infection resulting from bacterial translocation through an impaired intestinal mucosal barrier. To investigate involvement of bone marrow in survival outcome upon BCN057 treatment, C57B16 mice were exposed to partial body irradiation (PBI) where 40% of total bone marrow was […] to irradiation after shielding head and fore limbs. Treatment with BCN057 at 24 hrs post exposure of 14.5 Gy PBI rescued 70% of mice from radiation lethality (p<0.0001). However, all the untreated mice were dead within 12 days post-exposure (FIG. 1C).

COc1ccc2cc(-c3nc4ccc(C)cn4c3NCc3ccco3)c(=O)[nH]c2c1 [BCN057, 3-(3((furan-2-ylmethyl)ammo)-6-methylimidazo[1,2-a]pyridine-2-yl)-6-methoxyquinolin-2(1H)-one]
mice surviving beyond 30 days ([1]; AIR (16Gy) followed by eight doses of BCN057, AIR alone 100% mortality, n=10): 75%
tumor growth ([1]; AIR + BCN057 vs un-irradiated untreated control): significant tumor growth retardation; also recorded: significant reduction of tumor growth
tumor growth ([1]; BCN057 in un-irradiated mice vs un-irradiated untreated control): reduces the tumor growth
survival time ([1]; BCN057 post AIR vs AIR alone): significant improvement in survival time
mRNA level of β-catenin target genes [2]: several fold increases
mRNA level of WNT / β-catenin target genes [3]: several fold increase; also recorded: increases
serum FITC-dextran level ([4]; irradiated (AIR) mice treated with BCN057 vs irradiated untreated control, 4 h after gavage): significantly reduced; also recorded: lower serum dextran level
serum dextran level ([4]; unirradiated BCN057 treated mice vs irradiated control): lower serum dextran level
Lgr5+ve ISC in jejunal crypts [5]: significant preservation; also recorded: presence of GFP+ve Lgr5+ve ISCs
percent of BrdU+ve crypt epithelial cells ([6]; BCN057 treated vs untreated irradiated control, p<0.0005): significantly higher
crypt villus morphology and BRDU incorporation ([6]; non-irradiated mice treated with BCN057): did not induce any changes
survival [7]: 70%
